According to patent US20080153907A1, “Pharmaceutical Composition for the Treatment of Cancer Comprising Lhm-Ra Complex” (NANOHYBRID CO., LTD., priority 2005, published 2008):

What was measured:
CHX tumor cells [1] = assay: Tumor development in xenografted nude mice (tumor size); format: in vivo, athymic nude mice; conditions: RA 0.5 mg/ml, LDH-RA 50 μg/ml, every two weeks for 8 weeks; control tumor 30 mm after 8 weeks
Procedure: (§1) The CHX tumor cells were collected at 1×10^7 cells/well and administered subcutaneously to the hind legs of athymic nude mice. Appearance of tumor mass was observed every week. Tumor masses appeared 3 weeks after the subcutaneous administration, and, when a tumor size was increased to 5 mm, one group of the mice was untreated (control group), and the other groups of the mice were treated as follows: a LDH-dose group with LDH (1 mg/ml), a RA-dose group with RA (0.5 mg/ml), and a LDH-RA dose group with LDH-RA (50 μg/ml). The LDH-dose group, the RA-dose group, and the LDH-RA dose group were further treated with LDH, RA, and LDH-RA, respectively, every two weeks for 8 weeks. Referring to FIG. 12, in the control group, a tumor size was increased to 30 mm after 8 weeks. […] In the RA-dose group, a tumor size was reduced by about 20%. In the LDH-RA dose group, a tumor size was reduced by 80% or more. After then, the mice were anesthetized. Tumor tissues were cut, fixed in formalin, and cut into sections (5 μm thick) on a microtome. The sections were stained with hematoxylin/eosin (H/E) and examined with a microscope (50× magnification), and the results are shown in FIG. 13. Referring to FIG. 13, in the control group, tumor masses were found in almost all tissues, thereby causing growth retardation of tumor, resulting in necrosis. […]

CHX tumor cells [2] = assay: Activity of lactic acid dehydrogenase associated with apoptotic cell death; format: cell-based; conditions: 250 μg/ml of RA, 12 hours
Procedure: In order to evaluate an anticancer effect of a LDH-RA hybrid obtained according the present invention, activity of lactic acid dehydrogenase associated with apoptotic cell death was measured. For this, the CHX tumor cells were seeded into each well of a 96-well plate. The CHX tumor cells were divided into 6 groups: normal group with no treatment, LDH-dose group with 1,000 μg/ml of LDH, RA-dose group with 250 μg/ml of RA, LDH-RA low-dose group with 25 μg/ml of LDH-RA, LDH-RA mid-dose group with 50 μg/ml of LDH-RA, and LDH-RA high-dose group with 100 μg/ml of LDH-RA. All groups were cultured for 12 hours. 20 μl of pyruvate substrate (NADH 1 mg/ml) was added to each group, and the cultures were mixed at room temperature for 2 minutes and stirred at 37° C. for 30 minutes. 20 μl of a color reagent (Sigma 505-2) was added to each culture, and the resultant cultures were mixed at room temperature for 20 minutes. 100 μg of 0.4N NaOH was added to each culture, and the resultant cultures were mixed at room temperature for 15 minutes. Referring to FIG. 9, the activities of lactic acid dehydrogenase of the normal group, the LDH-dose group, and the RA-dose group were 6±1.5%, 13±2%, and 42±5%, respectively. The activities of lactic acid dehydrogenase of the LDH-RA low-dose group, the LDH-RA mid-dose group, and the LDH-RA high-dose group were 41±2%, 76±6%, and 86±5%, respectively. […]

CHX tumor cells [3] = assay: H/E staining of tumor tissues from xenografted nude mice; format: in vivo, athymic nude mice; conditions: RA 0.5 mg/ml, every two weeks for 8 weeks
Procedure: as §1

## CC1=C(/C=C/C(C)=C/C=C/C(C)=C/C(=O)O)C(C)(C)CCC1 [RA, retinoic acid]
CHX tumor cells [1]
  tumor size reduced by: about 20%
CHX tumor cells [2]
  activity of lactic acid dehydrogenase: 42±5%
CHX tumor cells [3]
  reduction in tumor tissues (H/E staining): 15%
